Source: patent publication US20120202794A1 (priority 2011, published 2012)
Like-named read-outs stand apart in the source and are kept apart here.

How the values were obtained:
[1] = system: genotype (GT) 1a H77 replicon; test: Replicon assay, H77 GT 1a replicon in Huh7-Lunet cells (RT-PCR); assay type: cell-based, HCV; details: Hepatitis C virus, GT1A, Huh-7, 96 h, 4 days incubation, read-out: RT-PCR H77 1a Potency EC90
Procedure: Cell Line and Maintenance: The genotype (GT) 1a H77 replicon (Apath LLC Brooklyn, N.Y.) was stably expressed in Huh7-Lunet cells (kindly provided by R. Bartenschlager University of Heidelberg, Heidelberg, Germany) and maintained in Dulbecco's modified Eagle's medium supplemented with 10% fetal bovine serum, 0.1 mM non essential amino acids (NEAA), 4 mM L-glutamine, 1 mM sodium pyruvate and 0.750 mg/mL G418 (Geneticin) (Invitrogen, Carlsbad, Calif.).
Replicon Assay: Inhibition of HCV in the H77 GT 1a replicon (Apath LLC, Brooklyn, N.Y.) was measured by Real-Time PCR (RT-PCR) Replicon cells were added to the plate at 1500 cells/well in 50 μL of medium and 50 μL of 2× drug dilutions were added (in duplicate) per well in a 96 well plate to total 100 μL per well. The plate was incubated at 37° C. in a humidified 8% CO2 atmosphere for 4 days. After incubation, the supernatant was discarded and total RNA was extracted with RNeasy 96 (Qiagen, Valencia Calif.) per manufacturer's instructions. The extracted RNA was amplified as described by Stuyver et al., J. Virol. (2003) 77: 10689-10694, and the ΔCt values for HCV were determined and the EC90 was calculated using GraphPad Prism software (San Diego, Calif.). A “no drug” (medium only) control was used to determine maximum amount of HCV RNA.

HCV Replicon 1b = test: HCV inhibition assay, HCV replicon 1b (Clone A or ET-lunet cells; RT-PCR or luciferase reporter); assay type: cell-based; details: Hepatitis C virus, 96 h, read-out: Replicon 1b potency EC90
Outline: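 Inhibition read either as luciferase signal (ET replicon) or as HCV 5′-NTR RNA by RT-PCR relative to rRNA, % = (1−2^−ΔΔCt)×100, against DMSO controls, giving EC50 and EC90. Cells: Clone A or ET-lunet, seeded 1500 or 3000/well, exposed 4 days at 37 °C, 5% CO2, 0.5% DMSO.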

[2] = Cell cytotoxicity assay (MTS), CC90 as reported in Table 1, cell line not stated; assay type: cell-based; details: human; MTS assay; 8 days incubation; cell line not given
Outline: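 MTS read-out (490 nm, 2 h dye step) after 8-day exposure at 37° C. Huh7, HepG2, BxPC3 were seeded at 2×10^3 and CEM at 5×10^3 cells/well, with compound serially diluted from 100 μM. CC90 comes from comparison with untreated control wells.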

[3] = HCV replicon 1b, 4 days incubation

Structure (SMILES) | EC90 [1] | EC90 (HCV Replicon 1b; [3]) | CC90 at 8 days [2] | EC90 (HCV Replicon 1b)
CC(C)C[C@H]1C(=O)N[C@@H](c2ccccc2)CN1C(=O)c1noc(-c2ccc(F)cc2)n1 [Compound 292, (3S,6S)-4-(5-(4-Fluorophenyl)-1,2,4-oxadiazole-3-carbonyl)-3-isobutyl-6-phenylpiperazin-2-one] | 0.079 µM | 0.078 µM | > 10 µM | –
CC(C)C[C@H]1C(=O)N[C@@H](C2CCOCC2)CN1C(=O)[C@@H]1C[C@H]1c1ccc(F)cc1 [Compound 476, (3S,6S)-4-((1R,2R)-2-(4-fluoro-phenyl)cyclopropanecarbonyl)-3-isobutyl-6-(tetrahydro-2H-pyran-4-yl)piperazin-2-one] | – | 0.23 µM | > 10 µM | –
CC(C)C[C@H]1C(=O)N[C@H](c2ccco2)CN1C(=O)c1cc(-c2ccc(F)cc2)on1 [Compound 483, (3S,6S)-4-(5-(4-fluorophenyl)isoxazole-3-carbonyl)-6-(furan-2-yl)-3-isobutyl-piperazin-2-one] | – | > 10 µM | > 10 µM | –
CC(C)C[C@H]1C(=O)N[C@@H](c2ccco2)CN1C(=O)c1cc(-c2ccc(F)cc2)on1 [Compound 484, (3S,6R)-4-(5-(4-fluorophenyl)isoxazole-3-carbonyl)-6-(furan-2-yl)-3-isobutylpiperazin-2-one] | – | 0.18 µM | > 10 µM | –
CC(C)C[C@H]1C(=O)N[C@H](c2ccc(Cl)s2)CN1C(=O)c1cc(-c2ccc(F)cc2)on1 [Compound 485, (3S,6S)-6-(5-chlorothiophen-2-yl)-4-(5-(4-fluorophenyl)isoxazole-3-carbonyl)-3-isobutylpiperazin-2-one] | – | > 10 µM | > 10 µM | –
CC(C)C[C@H]1C(=O)N[C@@H](c2ccc(Cl)s2)CN1C(=O)c1cc(-c2ccc(F)cc2)on1 [Compound 488, (3S,6R)-6-(5-chlorothiophen-2-yl)-4-(5-(4-fluorophenyl)isoxazole-3-carbonyl)-3-isobutylpiperazin-2-one] | – | 0.7 µM | > 10 µM | –
CCC[C@H]1C(=O)N[C@@H](c2cccs2)CN1C(=O)c1cc(-c2ccc(F)cc2)on1 [Compound 491, (3S,6R)-4-(5-(4-fluorophenyl)isoxazole-3-carbonyl)-3-propyl-6-(thiophen-2-yl)piper-azin-2-one] | – | 0.25 µM | > 10 µM | –
CCC[C@H]1C(=O)N[C@@H](c2cccs2)CN1C(=O)[C@@H]1C[C@H]1c1ccc(F)cc1 [Compound 495, (3S,6R)-4-((1R,2R)-2-(4-fluorophenyl)cyclopropanecarbonyl)-3-propyl-6-(thiophen-2-yl)piperazin-2-one] | – | 0.29 µM | > 10 µM | –
CC(C)C[C@H]1C(=O)N[C@@H](c2ccsc2Cl)CN1C(=O)[C@@H]1C[C@H]1c1ccc(F)cc1 [Compound 500, (3S,6S)-6-(2-chlorothiophen-3-yl)-4-((1R,2R)-2-(4-fluorophenyl)cyclopropane-carbonyl)-3-isobutylpiperazin-2-one] | – | 0.022 µM | > 10 µM | –
C=C[C@H]1CN(C(=O)c2cc(-c3ccc(F)cc3)on2)[C@@H](CC(C)C)C(=O)N1 [Compound 506, (3S,6S)-4-(5-(4-fluorophenyl)isoxazole-3-carbonyl)-3-isobutyl-6-vinylpiperazin-2-one] | – | 1.05 µM | > 10 µM | –
CC(C)C[C@H]1C(=O)N[C@@H](C(=O)N(C)C)CN1C(=O)c1cc(-c2ccc(F)cc2)on1 [Compound 507, (2R,5S)-4-(5-(4-fluorophenyl)isoxazole-3-carbonyl)-5-isobutyl-N,N-dimethyl-6-oxopiperazine-2-carboxamide] | – | 0.84 µM | > 10 µM | –
CNC(=O)[C@H]1CN(C(=O)c2cc(-c3ccc(F)cc3)on2)[C@@H](CC(C)C)C(=O)N1 [Compound 508, (2R,5S)-4-(5-(4-fluorophenyl)isoxazole-3-carbonyl)-5-isobutyl-N-methyl-6-oxopiperazine-2-carboxamide] | – | > 10 µM | > 10 µM | –
CC(C)C[C@H]1C(=O)N[C@@H](c2ncco2)CN1C(=O)c1cc(-c2ccc(F)cc2)on1 [Compound 510, (3S,6R)-4-(5-(4-fluorophenyl)isoxazole-3-carbonyl)-3-isobutyl-6-(oxazol-2-yl)piperazin-2-one] | – | > 10 µM | > 10 µM | –
CC(C)C[C@H]1C(=O)N[C@@H](c2ccccc2)CN1C(C)c1cc(-c2ccc(F)cc2)on1 (stereo partly drawn) [Compound 511, (3S,6S)-4-(1-(5-(4-fluorophenyl)isoxazol-3-yl)ethyl)-3-isobutyl-6-phenylpiperazin-2-one] | – | 0.45 µM | > 10 µM | –
CC(C)C[C@H]1C(=O)N[C@@H](c2cnco2)CN1C(=O)c1cc(-c2ccc(F)cc2)on1 [Compound 516, (3S,6R)-4-(5-(4-fluorophenyl)isoxazole-3-carbonyl)-3-isobutyl-6-(oxazol-5-yl)piperazin-2-one] | – | – | > 10 µM | 0.11 µM
CC(C)C[C@H]1C(=O)N[C@@H](c2cnco2)CN1C(=O)[C@@H]1C[C@H]1c1ccccc1 [Compound 517, (3S,6R)-3-isobutyl-6-(oxazol-5-yl)-4-((1R,2R)-2-phenylcyclopropane-carbonyl)piperazin-2-one] | – | 0.19 µM | > 10 µM | –
CC(C)C[C@H]1C(=O)N[C@@H](c2cnco2)CN1C(=O)c1noc(-c2ccc(F)cc2)n1 [Compound 518, (3S,6R)-4-(5-(4-fluorophenyl)-1,2,4-oxadiazole-3-carbonyl)-3-isobutyl-6-(oxazol-5-yl)piperazin-2-one] | – | 0.058 µM | > 10 µM | –
CC(C)C[C@H]1C(=O)N[C@@H](c2cnco2)CN1C(=O)c1cc(-c2ccc(F)cc2)no1 [Compound 519, (3S,6R)-4-(3-(4-fluorophenyl)isoxazole-5-carbonyl)-3-isobutyl-6-(oxazol-5-yl)piperazin-2-one] | – | 0.11 µM | > 10 µM | –
CC(C)C[C@H]1C(=O)N[C@@H](c2cnco2)CN1C(=O)/C=C/c1ccc(F)cc1F [Compound 520, (3S,6R)-4-((E)-3-(2,4-difluorophenyl)acryloyl)-3-isobutyl-6-(oxazol-5-yl)piperazin-2-one] | – | 0.47 µM | > 10 µM | –
CC(C)C[C@H]1C(=O)N[C@@H](c2cnco2)CN1C(=O)c1cc(-c2ccc(F)cc2F)on1 [Compound 522, (3S,6R)-4-(5-(2,4-difluorophenyl)isoxazole-3-carbonyl)-3-isobutyl-6-(oxazol-5-yl)piperazin-2-one] | – | 0.27 µM | > 10 µM | –
CC(C)C[C@H]1C(=O)N[C@@H](c2ccc[nH]2)CN1C(=O)c1cc(-c2ccc(F)cc2)on1 [Compound 523, (3S,6R)-4-(5-(4-fluorophenyl)isoxazole-3-carbonyl)-3-isobutyl-6-(1H-pyrrol-2-yl)piperazin-2-one] | – | 1.06 µM | > 10 µM | –
CC(C)C[C@H]1C(=O)N[C@H](c2ccc[nH]2)CN1C(=O)c1cc(-c2ccc(F)cc2)on1 [Compound 524, (3S,6S)-4-(5-(4-fluorophenyl)isoxazole-3-carbonyl)-3-isobutyl-6-(1H-pyrrol-2-yl)piperazin-2-one] | – | > 10 µM | > 10 µM | –
CC(C)C[C@H]1C(=O)N[C@@H](c2ccccc2)N1C(=O)c1cc(-c2ccc(F)cc2)on1 [Compound 528, (2R,5S)-1-(5-(4-fluorophenyl)isoxazole-3-carbonyl)-5-isobutyl-2-phenylimidazolidin-4-one] | – | > 10 µM | > 10 µM | –
CC(C)C[C@H]1C(=O)N[C@H](c2ccccc2)N1C(=O)c1cc(-c2ccc(F)cc2)on1 [Compound 529, (2S,5S)-1-(5-(4-fluorophenyl)isoxazole-3-carbonyl)-5-isobutyl-2-phenylimidazolidin-4-one] | – | > 10 µM | > 10 µM | –
CC(C)C[C@H]1C(=O)N[C@@H](c2ccccc2)N1C(=O)[C@H]1C[C@@H]1c1ccccc1 [Compound 530, (2R,5S)-5-isobutyl-2-phenyl-1-((1S,2S)-2-phenylcyclopropanecarbonyl)imidazolidin-4-one] | – | > 10 µM | > 10 µM | –
CC(C)C[C@H]1C(=O)N[C@@H](c2ccccc2)N1C(=O)[C@H]1C[C@@H]1c1ccc(F)cc1 [Compound 532, (2R,5S)-1-((1S,2S)-2-(4-fluorophenyl)cyclopropanecarbonyl)-5-isobutyl-2-phenyl-imidazolidin-4-one] | – | > 10 µM | > 10 µM | –
